Key:
[1] = target: T1, human Arginine Vasopressin Receptor 1a (AVPR1a) (Homo sapiens, UniProt P37288); test: Vasopressin V1a receptor antagonist assay (FLIPR calcium, CHO-AVPR1a cells); type: cell-based
T1 construct: expressed in transfected cells; host or cells: CHO (CHO-AVPR1a, kept under G418 selection)
Procedure, shortened: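 CHO cells expressing human AVPR1a were loaded with Calcium-6 dye and preincubated with compound for 15 min at 37° C. Cells were then challenged with AVP at its daily-determined EC80, and FLIPR fluorescence was read. Compounds were tested in duplicate as 10-point 1:3 dilutions from a top final concentration of 3 μM.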

[2] = target: T2, human Arginine Vasopressin Receptor V2 (AVPR2) (Homo sapiens, UniProt P30518); test: Vasopressin V2 receptor antagonist assay (TR-FRET cAMP, 1321N1 cells); type: cell-based
T2 construct: host or cells: 1321N1 (cAMPZen V2 assay ready frozen cells)
T2 sequence (P30518 whole entry): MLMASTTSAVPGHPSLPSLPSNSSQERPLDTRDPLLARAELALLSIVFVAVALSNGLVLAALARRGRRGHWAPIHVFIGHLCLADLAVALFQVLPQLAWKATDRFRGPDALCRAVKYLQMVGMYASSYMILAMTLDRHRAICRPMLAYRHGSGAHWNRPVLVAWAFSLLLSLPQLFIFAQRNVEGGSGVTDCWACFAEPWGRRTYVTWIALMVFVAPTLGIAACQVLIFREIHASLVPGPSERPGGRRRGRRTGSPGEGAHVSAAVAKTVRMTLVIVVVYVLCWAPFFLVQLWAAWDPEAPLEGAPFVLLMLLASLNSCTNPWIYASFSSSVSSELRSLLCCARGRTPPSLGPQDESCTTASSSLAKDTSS
Protocol: The purpose of the assay was to determine the inhibitory effect of synthesized compounds on the Vasopressin receptor 2. The assay was performed in commercially available 1321N1 cells expressing the human Arginine Vasopressin Receptor V2 (AVPR2) (Perkin Elmer #ES-363-CF). Arginine Vasopressin (AVP) evokes an increase in intracellular cAMP in these cells which is measured in a TR-FRET assay using a Europium cAMP tracer and ULight labelled antibody reagents contained in a LANCE Ultra cAMP kit (Perkin Elmer #TRF0263). Increases in cAMP in the assay result in a reduction in TR-FRET as the cAMP produced by the stimulated cells competes with the Eu-cAMP tracer for binding sites on the ULight labelled antibody. Test compounds were assessed for their ability to affect the magnitude of the response to AVP, with antagonists showing a concentration-dependent decrease in the AVP-mediated reduction in TR-FRET signal.
cAMPZen V2 assay ready cells were thawed at 37° C. and resuspended directly from frozen in 9 ml growth medium consisting of DMEM supplemented with 10% v/v fetal bovine serum, 1× non-essential amino acids, and 1 mM sodium pyruvate. Cells were spun at 1000 rpm for 3 minutes and the supernatant was carefully removed and discarded. The pellet was resuspended in 5 ml stimulation buffer and the cell density determined using the Vi-Cell automated cell counter. The cell suspension was diluted to a 0.2×10^6/ml suspension ready for plating. To all wells of a white 384-well Optiplate (Perkin Elmer #6007299) 5 μL of cells in stimulation buffer were dispensed (1,000 cells per well). Stimulation buffer consisted of HBSS (+Ca/+Mg) supplemented with 5 mM HEPES, 0.1% BSA stabiliser and 0.5 mM IBMX.
At the start of each assay day the potency of AVP was assessed and an EC80 concentration determined for subsequent compound profiling. Assays were performed by first an addition of 2.5 μl of control or test compound at 4× final concentration in stimulation buffer followed by 2.5 μl of AVP at 4× final concentration in stimulation buffer. After a 1 hour reaction, detection reagents were added by first an addition of 5 μl EU-cAMP tracer, followed by 5 μl ULight-anti-cAMP both diluted as per the manufacturer's instructions. After a one hour incubation, plates were ready to be read (signals then remained stable for up to 24 hours). Changes in time resolved fluorescence were monitored with excitation via a laser (337 nm) measuring both 615 nm and 665 nm emission wavelengths. […] For compound profiling, test compounds were dispensed by the Labcyte Echo (10-point curve, 1:3 dilutions) in a target 0.1 μl volume then diluted 750-fold in stimulation buffer containing 3% DMSO prior to addition to the cells. At the end of the incubation period, 2.5 μl of AVP in stimulation buffer was added at the previously determined EC80 concentration.
In-plate controls for the assay included a Tolvaptan concentration-response curve as the reference V2 antagonist and an AVP concentration-response curve to confirm the reproducibility of the EC80 used for the compound challenge.

T1 sequence (P37288 whole entry): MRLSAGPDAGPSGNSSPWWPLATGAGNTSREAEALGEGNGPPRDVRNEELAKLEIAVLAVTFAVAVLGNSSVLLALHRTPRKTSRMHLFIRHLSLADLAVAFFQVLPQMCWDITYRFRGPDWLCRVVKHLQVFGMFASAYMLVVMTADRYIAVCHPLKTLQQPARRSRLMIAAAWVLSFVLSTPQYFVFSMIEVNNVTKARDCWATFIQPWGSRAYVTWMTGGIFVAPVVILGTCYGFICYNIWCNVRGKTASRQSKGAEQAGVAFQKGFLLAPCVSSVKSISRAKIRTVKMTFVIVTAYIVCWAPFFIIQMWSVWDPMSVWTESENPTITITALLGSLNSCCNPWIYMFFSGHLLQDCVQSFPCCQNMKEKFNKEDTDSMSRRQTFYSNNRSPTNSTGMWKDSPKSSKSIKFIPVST

| Compound | IC50 [1] [nM] | IC50 [2] [nM] |
| --- | --- | --- |
| CC1CN(C(=O)N2CC3(C2)CN(c2ccc(F)cn2)C3)c2ccc(Cl)cc2O1 (single isomer, unassigned) [9-3-A] | < 100 | ≥ 1000 |
| CC1CN(C(=O)N2CC3(C2)CN(c2ccc(F)cn2)C3)c2ccc(F)cc2O1 (single isomer, unassigned) [9-4-B] | < 100 | ≥ 1000 |
| O=C(N1CC2(C1)CN(c1ccc(F)cn1)C2)N1CCC(O)c2cc(Cl)ccc21 (single isomer, unassigned) [13-1-A] | < 100 | ≥ 1000 |
| O=C(N1CC2(C1)CN(c1ccccn1)C2)N1CCC(O)c2cc(Cl)ccc21 (single isomer, unassigned) [13-2-A] | < 100 | ≥ 1000 |
| O=C(N1CC2(C1)CN(c1ccccn1)C2)N1CCC(O)c2cc(Cl)ccc21 (single isomer, unassigned) [13-2-B] | < 100 | ≥ 1000 |
| O=C(N1CC2(C1)CN(c1cnccn1)C2)N1CCC(O)c2cc(Cl)ccc21 (single isomer, unassigned) [13-3-A] | < 100 | ≥ 1000 |
| CC1COc2cc(F)c(F)cc2N1C(=O)N1CC2(C1)CN(c1ncccn1)C2 (single isomer, unassigned) [19-1-B] | < 100 | ≥ 1000 |
| CC1COc2cc(F)c(F)cc2N1C(=O)N1CC2(C1)CN(c1ccc(F)cn1)C2 (single isomer, unassigned) [19-5-B] | < 100 | < 100 |
| O=C(N1CC2(C1)CN(c1ccc(F)cn1)C2)N1CCOCc2cc(Cl)ccc21 [8-4] | < 100 | – |
| O=C(N1CC2(C1)CN(c1ccc(F)cn1)C2)N1CCC(O)c2cc(Cl)ccc21 (stereo not shown) [13-1, (6-chloro-4-hydroxy-3,4-dihydroquinolin-1(2H)-yl)(6-(5-fluoropyridin-2-yl)-2,6-diazaspiro[3.3]heptan-2-yl)methanone] | < 100 | – |

Now from value to compound:

| IC50 [1] [nM] | IC50 [2] [nM] | Compound |
| --- | --- | --- |
| < 100 | ≥ 1000 | CC1COc2cc(Cl)ccc2N1C(=O)N1CC2(C1)CN(c1ncccn1)C2 (single isomer, unassigned) [1-83-B, (7-chloro-3-methyl-2,3-dihydro-4H-benzo[b][1,4]oxazin-4-yl)(6-(pyrimidin-2-yl)-2,6-diazaspiro[3.3]heptan-2-yl)methanone] |
| < 100 | 500 to 1000 | CC1COc2cc(F)ccc2N1C(=O)N1CC2(C1)CN(c1noc3ccccc13)C2 (single isomer, unassigned) [4-3-B] |
| ≥ 1000 | ≥ 1000 | CC1COc2cc(Cl)ccc2N1C(=O)N1CC2(C1)CN(c1cccnn1)C2 (single isomer, unassigned) [9-1-A] |
| < 100 | ≥ 1000 | CC1COc2cc(Cl)ccc2N1C(=O)N1CC2(C1)CN(c1cccnn1)C2 (single isomer, unassigned) [9-1-B] |
| < 100 | 100 to 500 | CC1COc2cc(F)ccc2N1C(=O)N1CC2(C1)CN(c1ccc(F)cn1)C2 (single isomer, unassigned) [12-1-B] |
| < 100 | 100 to 500 | CC1COc2cc(Cl)ccc2N1C(=O)N1CC2(C1)CN(c1noc3cccnc13)C2 (single isomer, unassigned) [18-3-B] |
| < 100 | ≥ 1000 | CC1COc2cc(F)ccc2N1C(=O)N1CC2(C1)CN(c1ncc(F)cn1)C2 (single isomer, unassigned) [18-4-B] |
| < 100 | 100 to 500 | CC1COc2cc(Cl)c(F)cc2N1C(=O)N1CC2(C1)CN(c1ncccn1)C2 (single isomer, unassigned) [19-2-B] |
| < 100 | ≥ 1000 | CC1COc2cc(F)c(F)cc2N1C(=O)N1CC2(C1)CN(c1cccnn1)C2 (single isomer, unassigned) [19-3-B] |
| < 100 | ≥ 1000 | CC1COc2cc(Cl)c(F)cc2N1C(=O)N1CC2(C1)CN(c1cccnn1)C2 (single isomer, unassigned) [19-4-A] |
| < 100 | ≥ 1000 | CC1COc2cc(Cl)ccc2N1C(=O)N1CC2(C1)CN(c1cccnc1)C2 (single isomer, unassigned) [20-1-B] |

— patent US12152038B2, “Vasopressin receptor antagonists and products and methods related thereto” (Neumora Therapeutics, Inc., priority 2017, dated 2024)
